Paper PMC6407576, “Synthesis and evaluation of anticancer, antiphospholipases, antiproteases, and antimetabolic syndrome activities of some 3H-quinazolin-4-one derivatives” (Journal of Enzyme Inhibition and Medicinal Chemistry, 2019)

Columns and labels:
[1] = biological target: T1, human group IIA (hG-IIA) sPLA2 (Homo sapiens, UniProt P14555); assay: In vitro antiphospholipase activity; format: biochemical
T1 sequence (P14555 21-144): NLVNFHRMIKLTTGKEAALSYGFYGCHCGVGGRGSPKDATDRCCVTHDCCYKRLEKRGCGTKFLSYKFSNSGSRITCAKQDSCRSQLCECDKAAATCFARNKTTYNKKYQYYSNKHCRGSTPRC

[2] = biological target: T2, human group V (hG-V) sPLA2 (Homo sapiens, UniProt P39877); assay: In vitro antiphospholipase activity; format: biochemical; conditions: 20 min preincubation, lecithin substrate, pH 7.6; for IC50: read-out: mean IC50 against hG-V (converted)
T2 sequence (P39877 21-138): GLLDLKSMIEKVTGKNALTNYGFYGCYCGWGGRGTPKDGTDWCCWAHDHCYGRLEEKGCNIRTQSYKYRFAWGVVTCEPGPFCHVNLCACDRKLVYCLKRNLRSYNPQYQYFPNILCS

[3] = biological target: T3, human group X (hG-X) sPLA2 (Homo sapiens, UniProt O15496); assay: In vitro antiphospholipase activity; format: biochemical; conditions: 20 min preincubation, lecithin substrate, pH 7.6; for IC50: read-out: mean IC50 against hG-X (converted)
T3 sequence (O15496 43-165): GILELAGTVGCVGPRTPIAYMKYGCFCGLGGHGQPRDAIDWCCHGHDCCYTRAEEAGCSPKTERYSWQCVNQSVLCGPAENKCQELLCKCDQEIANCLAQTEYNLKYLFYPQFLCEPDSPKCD

[4] = biological target: Naja mossambica mossambica sPLA2 (NmPLA2); assay: In vitro antiphospholipase activity; format: biochemical; conditions: 20 min preincubation, lecithin substrate, pH 7.6
[5] = biological target: Apis mellifera bee venom (AmPLA2) (Apis mellifera, UniProt P00630); assay: biochemical
Chain of Apis mellifera bee venom (AmPLA2) (P00630 34-167 limits assumed): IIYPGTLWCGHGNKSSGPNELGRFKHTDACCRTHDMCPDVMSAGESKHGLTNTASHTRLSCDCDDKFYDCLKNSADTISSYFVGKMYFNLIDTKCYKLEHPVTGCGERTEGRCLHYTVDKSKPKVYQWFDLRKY

[6] = biological target: cathepsin-B (Homo sapiens, UniProt P07858); assay: In vitro antiprotease activity; format: biochemical; conditions: 15 min preincubation; read-out: mean IC50 against Cathepsin-B (converted)
Protocol: (§1) The inhibitory effects of 21 3H-quinazolin-4-one derivatives on several available therapeutically important proteases such as cathepsin-B, collagenase, elastase, thrombin, and trypsin were investigated. […] The protease inhibitory activity was expressed as inhibition percentage, which was determined by comparison with a control experiment. The results were expressed as IC50 values that were determined from the standard curve. A protease inhibitor cocktail (Sigma) was used as the positive control.

[7] = biological target: collagenase; assay: In vitro antiprotease activity; format: biochemical; conditions: 15 min preincubation
Protocol: as §1

[8] = biological target: elastase; assay: In vitro antiprotease activity; format: biochemical; conditions: 15 min preincubation
Protocol: as §1

[9] = biological target: thrombin (Homo sapiens, UniProt P00734); assay: In vitro antiprotease activity; format: biochemical; conditions: 15 min preincubation; read-out: mean IC50 against Thrombin (converted)
Protocol: as §1

[10] = biological target: T4, trypsin (Bos taurus, UniProt P00760); assay: In vitro antiprotease activity; format: biochemical; conditions: 15 min preincubation; read-out: mean IC50 against Trypsin (converted)
T4 construct: gene PRSS1
T4 sequence (P00760 24-246): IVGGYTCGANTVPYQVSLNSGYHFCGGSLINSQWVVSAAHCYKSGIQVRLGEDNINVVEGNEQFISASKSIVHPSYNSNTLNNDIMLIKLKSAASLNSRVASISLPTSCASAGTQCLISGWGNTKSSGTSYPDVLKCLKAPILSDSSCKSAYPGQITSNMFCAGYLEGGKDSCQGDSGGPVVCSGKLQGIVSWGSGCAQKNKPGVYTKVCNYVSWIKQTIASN
Protocol: as §1

[11] = biological target: xanthine oxidase (Homo sapiens, UniProt P47989); assay: In vitro inhibition of xanthine oxidase; format: biochemical
Chain of xanthine oxidase (P47989 whole entry, species assumed): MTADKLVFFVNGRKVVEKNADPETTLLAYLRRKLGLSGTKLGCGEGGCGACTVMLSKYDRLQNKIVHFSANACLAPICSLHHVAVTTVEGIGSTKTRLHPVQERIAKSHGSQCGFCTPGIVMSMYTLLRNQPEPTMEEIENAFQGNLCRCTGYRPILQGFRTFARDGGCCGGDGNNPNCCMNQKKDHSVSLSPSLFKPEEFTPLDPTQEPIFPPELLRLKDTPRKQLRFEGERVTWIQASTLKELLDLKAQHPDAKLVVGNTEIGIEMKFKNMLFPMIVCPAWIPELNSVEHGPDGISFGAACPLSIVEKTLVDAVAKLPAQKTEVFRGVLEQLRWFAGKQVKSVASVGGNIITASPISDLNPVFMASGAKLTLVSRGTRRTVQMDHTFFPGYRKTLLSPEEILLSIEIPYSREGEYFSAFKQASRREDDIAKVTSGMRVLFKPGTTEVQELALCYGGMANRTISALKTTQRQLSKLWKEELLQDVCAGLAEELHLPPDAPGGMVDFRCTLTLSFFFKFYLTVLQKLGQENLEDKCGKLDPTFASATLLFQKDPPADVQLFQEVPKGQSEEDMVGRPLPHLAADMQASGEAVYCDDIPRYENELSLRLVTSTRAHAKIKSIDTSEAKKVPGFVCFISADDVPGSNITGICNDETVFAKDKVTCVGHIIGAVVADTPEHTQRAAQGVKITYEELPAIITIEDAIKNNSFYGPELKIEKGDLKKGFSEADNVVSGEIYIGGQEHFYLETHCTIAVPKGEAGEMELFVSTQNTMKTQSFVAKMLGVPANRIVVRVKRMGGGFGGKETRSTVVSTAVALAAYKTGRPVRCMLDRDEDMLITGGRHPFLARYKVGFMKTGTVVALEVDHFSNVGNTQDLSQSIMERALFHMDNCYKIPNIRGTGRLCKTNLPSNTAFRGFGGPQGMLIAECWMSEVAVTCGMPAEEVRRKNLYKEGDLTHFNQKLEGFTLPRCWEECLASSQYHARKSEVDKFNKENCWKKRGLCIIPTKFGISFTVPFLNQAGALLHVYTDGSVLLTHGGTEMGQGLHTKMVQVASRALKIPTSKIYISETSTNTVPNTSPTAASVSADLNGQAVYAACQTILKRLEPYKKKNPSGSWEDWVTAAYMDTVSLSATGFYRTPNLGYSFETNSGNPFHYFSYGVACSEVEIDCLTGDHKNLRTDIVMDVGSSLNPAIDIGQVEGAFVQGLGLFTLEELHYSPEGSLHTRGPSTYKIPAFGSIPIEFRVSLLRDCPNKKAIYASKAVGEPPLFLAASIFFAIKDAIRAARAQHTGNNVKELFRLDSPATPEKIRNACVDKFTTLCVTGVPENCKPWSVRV
Protocol: The xanthine oxidase inhibitory activities of the examined chemical compounds were determined by following the formation of uric acid from xanthine according to the reported method by Bondet and co-workers[46]. […] The results were expressed as IC50 determined from the curve.

SMILES	IC50 [1]	IC50 [2]	IC50 [3]	mean IC50 against NmPLA2 [4]	IC50 [5]	IC50 [6]	mean IC50 against Collagenase [7]	mean IC50 against Elastase [8]	IC50 [9]	IC50 [10]	IC50 [11]	melting point	mean IC50 against hG-V [2]	mean IC50 against hG-X [3]
COc1cc(-n2c(C)nc3ccc(Cl)cc3c2=O)cc(OC)c1OC [Compound 5c, 6 -Chloro-2-methyl-3–(3,4,5-trimethoxy-phenyl)-3H-quinazolin-4-one]	57.5 µM	38.1 µM	26.3 µM	5.15 ± 0.92 µg/mL	12.6 µM	34.6 µM	21.50 ± 2.12 µg/mL	1.75 ± 0.05 µg/mL	6.93 µM	6.24 µM	36 µM	188 to 190 °C	–	–
Cc1nc2ccc(Br)cc2c(=O)n1/N=C/c1ccc2ccccc2c1 [Compound 8b, (E)-6-Bromo-2-methyl-3-[(naphthalen-2-ylmethylene)-amino]-3H-quinazolin-4-one]	42.3 µM	54.8 µM	33.1 µM	16.25 ± 1.06 µg/mL	18.5 µM	54.8 µM	4.25 ± 1.06 µg/mL	21.50 ± 2.12 µg/mL	42.1 µM	65 µM	25.5 µM	–	–	–
Cc1nc2ccccc2c(=O)n1/N=C/c1ccc(-c2ccccn2)cc1 [Compound 8c, (E)-2-Methyl-3-[(4-pyridin-2-yl-benzylidene)-amino]-3H-quinazolin-4-one]	22.2 µM	30.8 µM	69.8 µM	7.60 ± 0.85 µg/mL	16.5 µM	36.7 µM	23.50 ± 0.71 µg/mL	32.00 ± 2.83 µg/mL	69 µM	103 µM	11.8 µM	188 to 190 °C	–	–
Cc1nc2ccc(Br)cc2c(=O)n1/N=C/c1ccc(-c2ccccn2)cc1 [Compound 8d, (E)-6-Bromo-2-methyl-3-[(4-pyridin-2-yl-benzylidene)-amino]-3H-quinazolin-4-one]	13.7 µM	22.3 µM	15.7 µM	6.55 ± 0.78 µg/mL	10.5 µM	82.3 µM	3.00 ± 0.01 µg/mL	26.00 ± 1.41 µg/mL	37 µM	54.9 µM	23.9 µM	209 to 210 °C	–	–
COc1cccc(/C=N/n2c(C)nc3ccccc3c2=O)c1[N+](=O)[O-] [Compound 8e, (E)-3-[(3-Methoxy-2-nitro-benzylidene)-amino]-2-methyl-3H-quinazolin-4-one]	49.1 µM	70.2 µM	34.7 µM	7.75 ± 0.35 µg/mL	22.5 µM	6.95 µM	15.50 ± 2.12 µg/mL	1.25 ± 0.05 µg/mL	4.43 µM	2.51 µM	102 µM	178 to 180 °C	–	–
Cc1nc2ccccc2c(=O)n1/N=C/c1ccc(C#N)cc1 [Compound 8g, (E)-4-[(2-Methyl-4-oxo-4H-quinazolin-3-ylimino)-methyl]-benzonitrile]	95.4 µM	117 µM	79.8 µM	12.75 ± 1.06 µg/mL	46.8 µM	25.1 µM	17.25 ± 1.77 µg/mL	11.00 ± 0.41 µg/mL	48.6 µM	46.8 µM	257 µM	222 to 224 °C	–	–
Cc1nc2ccc(Br)cc2c(=O)n1/N=C/c1ccc(C#N)cc1 [Compound 8h, (E)-4-[(6-Bromo-2-methyl-4-oxo-4H-quinazolin-3-ylimino)-methyl]-benzonitrile]	120 µM	92.6 µM	112 µM	22.90 ± 1.27 µg/mL	79 µM	10.9 µM	14.50 ± 2.12 µg/mL	27.50 ± 2.12 µg/mL	66.7 µM	91.2 µM	154 µM	228 to 230 °C	–	–
Cc1nc2ccccc2c(=O)n1/N=C/c1ccc(-c2ccccc2)cc1 [Compound 8i]	45.4 µM	67.8 µM	50.1 µM	11.00 ± 1.41 µg/mL	27.7 µM	10.3 µM	15.25 ± 1.06 µg/mL	13.50 ± 2.12 µg/mL	51.6 µM	36.8 µM	25 µM	–	–	–
Cc1nc2ccccc2c(=O)n1NC(=O)OCC(C)C [Compound 10, (2-methyl-4-oxo-4H-quinazolin-3-yl)-carbamic acid isobutyl ester]	56.3 µM	62.7 µM	34.5 µM	13.45 ± 0.78 µg/mL	16.3 µM	81.7 µM	28.00 ± 1.41 µg/mL	1.45 ± 0.21 µg/mL	8.54 µM	4 µM	109 µM	168 to 170 °C	–	–
Cc1nc2ccccc2c(=O)n1/N=C/N(C)C [Compound 12, (E)-N,N-dimethyl-N′-(2-methyl-4-oxo-4H-quinazolin-3-yl)-formamidine]	200 µM	150 µM	141 µM	35.00 ± 2.83 µg/mL	122 µM	119 µM	35.50 ± 2.12 µg/mL	8.50 ± 2.12 µg/mL	23.9 µM	56.5 µM	91.2 µM	100 to 102 °C	–	–
Cc1cccc(NC(=O)CSc2nc3ccccc3c(=O)n2-c2ccccc2)c1C [Compound 15e]	34.9 µM	32.2 µM	17.4 µM	11.00 ± 1.41 µg/mL	21.1 µM	3.85 µM	4.50 ± 0.71 µg/mL	31.50 ± 2.12 µg/mL	57.8 µM	81.8 µM	98.7 µM	–	–	–
Cc1ccc2nc(SCC(=O)Nc3cccc(C)c3C)n(-c3ccccc3)c(=O)c2c1 [Compound 15f, N-(2,3-Dimethyl-phenyl)-2-(6-methyl-4-oxo-3-phenyl-3,4-dihydro-quinazolin-2-ylsulfanyl) -acetamide]	90.8 µM	70.1 µM	51.2 µM	33.00 ± 2.83 µg/mL	86.7 µM	9.31 µM	10.50 ± 2.12 µg/mL	16.00 ± 1.41 µg/mL	40.7 µM	39.6 µM	136 µM	218 to 220 °C	–	–
CC1(C)CC[C@]2(C(=O)O)CC[C@]3(C)C(=CC[C@@H]4[C@@]5(C)CC[C@H](O)C(C)(C)[C@@H]5CC[C@]43C)[C@@H]2C1 [Oleanolic acid, reference compound]	–	–	–	4.90 ± 0.42 µg/mL	9.2 µM	–	–	–	–	–	–	–	7.50 ± 0.71 µg/mL	7.55 ± 0.64 µg/mL
